Test results: patent US20220257635A1, “INJECTABLE NUTRITIONAL SUPPLEMENT” (CHEMVET AUSTRALIA PTY LTD, priority 2019, published 2022)

Assay: Stability storage of the Comparative Example 1 formulation at 5° C. and 40° C. (75% RH), vitamin B12 analysed
Type: physicochemical
Conditions: in formulation of Table 2; for Vitamin B12 T = 1 month (mg/mL) 5° C.: 1 month at 5° C.; for Vitamin B12 T = 1 month (mg/mL) 40° C.: 1 month at 40° C. (75% RH); for Vitamin B12 T = 0 (mg/mL) 5° C.: T = 0, 5° C. sample; for Vitamin B12 T = 0 (mg/mL) 40° C.: T = 0, 40° C. (75% RH) sample
Procedure: To the formulation of Table 1, water-soluble disodium Copper EDTA and disodium Zinc EDTA, were successfully added at the rate of 107 g/L and 285 g/L respectively and then topped up with water to the required volume.
This formulation was sent to Chemical Analysis, and analysed at 0 time and placed on stability storage at 5° C. and 40° C. (75% RH).

Substance	Vitamin B12 T = 1 month (mg/mL) 5° C.	Vitamin B12 T = 1 month (mg/mL) 40° C.	Vitamin B12 T = 0 (mg/mL) 5° C.	Vitamin B12 T = 0 (mg/mL) 40° C.
Cyanocobalamin	0.23 mg/mL	0.14 mg/mL	0.24 mg/mL	0.24 mg/mL
Hydroxocobalamin Acetate	0.26 mg/mL	0.03 mg/mL	0.49 mg/mL	0.49 mg/mL
